The values that follow come from patent US20110143948A1, “MOLECULAR SIGNATURES AND BIOMARKERS ASSOCIATED WITH MELANOMA AND METHODS OF USE THEREOF” (priority 2008, published 2011).

In this data set the test system is ncRNAs (SEQ ID NO 28-89). Description: ncRNA arrays of melanocytes, keratinocytes, normal skin, melanoma cell lines and patient samples. Further details: species or system human. The following applies: for ncRNA array expression, patient 2: melanoma patient 2 sample compared to normal skin; for ncRNA array expression, patient 3: melanoma patient 3 sample compared to normal skin; for ncRNA array expression, patient 4: melanoma patient 4 sample compared to normal skin; for ncRNA array expression, patient 5: melanoma patient 5 sample compared to normal skin; for ncRNA array expression, patient 6: melanoma patient 6 sample compared to normal skin; for ncRNA array expression, patient 7: melanoma patient 7 sample compared to normal skin; for ncRNA array expression, patient 8: melanoma patient 8 sample compared to normal skin; for ncRNA array expression, patient 9: melanoma patient 9 sample compared to normal skin; for ncRNA array expression, patient 10: melanoma patient 10 sample compared to normal skin; for ncRNA array expression, patient 19: melanoma patient 19 sample compared to normal skin; for ncRNA array expression, patient 20: melanoma patient 20 sample compared to normal skin; for ncRNA array expression, patient 21: melanoma patient 21 sample compared to normal skin; for ncRNA array expression, patient 22: melanoma patient 22 sample compared to normal skin; for ncRNA array expression, patient 23: melanoma patient 23 sample compared to normal skin; for ncRNA array expression, patient 24: melanoma patient 24 sample compared to normal skin; for ncRNA array expression, patient 25: melanoma patient 25 sample compared to normal skin; for ncRNA array expression, patient 26: melanoma patient 26 sample compared to normal skin; for ncRNA array expression, patient 27: melanoma patient 27 sample compared to normal skin; for ncRNA array expression, patient 28: melanoma patient 28 sample compared to normal skin; for ncRNA array expression, patient 29: melanoma patient 29 sample compared to normal skin; for ncRNA array expression, patient 30: melanoma patient 30 sample compared to normal skin. Summed up: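 Total RNA from melanocytes, keratinocytes, normal human skin, melanoma cell lines and melanoma patient samples was profiled on an array of >10,000 putative (>200 nt) human and mouse ncRNAs plus RefSeq mRNA probes. Expression was compared with melanocytes or normal skin, keratinocyte signatures were subtracted, and hits were validated by qRT-PCR and Northern blot.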

On to “SEQ ID NO 30 (ATTCCAAGGCCTATTAAAATTTCTGAGCATTGCCCATTTCTTTTGCTTTATCTGTAGGAC; DNA, backbone and methylation of C not given here; listed as Homo sapiens)”, for which the “ncRNA array expression, patient 2” value amounted to 4.3; the “ncRNA array expression, patient 3” value turned out to be 3.169; the “ncRNA array expression, patient 4” value turned out to be 2.472; the “ncRNA array expression, patient 5” value is 3.84. For the same substance, the “ncRNA array expression, patient 6” value worked out at 2.191; the “ncRNA array expression, patient 7” value amounted to 4.639; the “ncRNA array expression, patient 8” value came to 2.888; the “ncRNA array expression, patient 9” value was found to be 0.4508. For the same substance, the “ncRNA array expression, patient 10” value is on record as 3.549; the “ncRNA array expression, patient 19” value came to 0.5363; the “ncRNA array expression, patient 20” value is recorded as 1.367; the “ncRNA array expression, patient 21” value turned out to be 3.468. The “ncRNA array expression, patient 22” value stood at 1.187; the “ncRNA array expression, patient 23” value was 0.3079; the “ncRNA array expression, patient 24” value is listed as −1.318; the “ncRNA array expression, patient 25” value amounted to 1.316. The “ncRNA array expression, patient 26” value is on record as 2.451; the “ncRNA array expression, patient 27” value came to 4.706; the “ncRNA array expression, patient 28” value is reported as 0.8038; the “ncRNA array expression, patient 29” value came to 4.757. The “ncRNA array expression, patient 30” value is recorded as 1.117.

For the substance “SEQ ID NO 29 (TTAAATACATGTTTCTAATATTTTAGTGTTTTGTATTTAGGTTATTTATTCTTTGTATCT; DNA, backbone and methylation of C not given here; listed as Homo sapiens)”, the “ncRNA array expression, patient 2” value was 3.623; the “ncRNA array expression, patient 3” value stood at 2.485; the “ncRNA array expression, patient 4” value amounted to 3.452; the “ncRNA array expression, patient 5” value amounted to 2.59. Besides, the “ncRNA array expression, patient 6” value is given as 1.012; the “ncRNA array expression, patient 7” value is 2.658; the “ncRNA array expression, patient 8” value is given as 3.211; the “ncRNA array expression, patient 9” value is reported as 2.109. Besides, the “ncRNA array expression, patient 10” value was 2.287; the “ncRNA array expression, patient 19” value was determined as 0.6625; the “ncRNA array expression, patient 20” value is 2.377; the “ncRNA array expression, patient 21” value worked out at 2.504. Also, the “ncRNA array expression, patient 22” value is 1.796; the “ncRNA array expression, patient 23” value is on record as 1.689; the “ncRNA array expression, patient 24” value came out at 2.143; the “ncRNA array expression, patient 25” value is listed as 3.284. Further, the “ncRNA array expression, patient 26” value is 3.992; the “ncRNA array expression, patient 27” value worked out at 2.873; the “ncRNA array expression, patient 28” value worked out at 2.81; the “ncRNA array expression, patient 29” value amounted to 4.101. Besides, the “ncRNA array expression, patient 30” value is −2.062.

For “SEQ ID NO 62 (AATCGTTAATATCATTGATATTAAGTAATTTCCCCACTCTGAGTGAATACTTTGATGATG; listed as DNA, chemistry not given here; listed as Homo sapiens)”, the “ncRNA array expression, patient 2” value is recorded as 1.565; the “ncRNA array expression, patient 3” value is on record as 1.466; the “ncRNA array expression, patient 4” value stood at 3.47; the “ncRNA array expression, patient 5” value is recorded as 1.994. Moreover, the “ncRNA array expression, patient 6” value is 0.5751; the “ncRNA array expression, patient 7” value was 2.152; the “ncRNA array expression, patient 8” value was 0.2609; the “ncRNA array expression, patient 9” value is on record as 0.5801. In addition, the “ncRNA array expression, patient 10” value came out at 1.264; the “ncRNA array expression, patient 19” value came to 1.414; the “ncRNA array expression, patient 20” value is given as 1.836; the “ncRNA array expression, patient 21” value came to 0.6984. Besides, the “ncRNA array expression, patient 22” value is reported as 0.4968; the “ncRNA array expression, patient 23” value is given as −0.5784; the “ncRNA array expression, patient 24” value is 3.5; the “ncRNA array expression, patient 25” value was determined as 3.363. The “ncRNA array expression, patient 26” value is listed as 2.394; the “ncRNA array expression, patient 27” value was 1.855; the “ncRNA array expression, patient 28” value was found to be 1.418; the “ncRNA array expression, patient 29” value was 1.3702. In addition, the “ncRNA array expression, patient 30” value is recorded as −1.545.

On to “SEQ ID NO 49 (CGATGGCTTGTCATTGTCCCCTGTCCTGGAACAATAAAGCAAGTGCCTTGTGGTCTCACT; listed as DNA, chemistry not given here; listed as Homo sapiens)”, for which the “ncRNA array expression, patient 2” value is given as −3.131; the “ncRNA array expression, patient 3” value is on record as −1.901; the “ncRNA array expression, patient 4” value was −2.3226; the “ncRNA array expression, patient 5” value is listed as −1.9036. Moreover, the “ncRNA array expression, patient 6” value was found to be 0.7986; the “ncRNA array expression, patient 7” value is given as −1.477; the “ncRNA array expression, patient 8” value is −1.974; the “ncRNA array expression, patient 9” value is on record as −2.214. In addition, the “ncRNA array expression, patient 10” value is given as −4.429; the “ncRNA array expression, patient 19” value is listed as −2.094; the “ncRNA array expression, patient 20” value is on record as −2.123; the “ncRNA array expression, patient 21” value was −2.207. Moreover, the “ncRNA array expression, patient 22” value is recorded as −2.118; the “ncRNA array expression, patient 23” value was −1.787; the “ncRNA array expression, patient 24” value is −1.642; the “ncRNA array expression, patient 25” value is listed as −2.472. The “ncRNA array expression, patient 26” value was −3.037; the “ncRNA array expression, patient 27” value is given as −2.447; the “ncRNA array expression, patient 28” value was −2.621; the “ncRNA array expression, patient 29” value was −2.39. Also, the “ncRNA array expression, patient 30” value was −0.9259.

“SEQ ID NO 56 (AAAAAATGAGGCAATCTCATCCCGAAACTATTTAAAACTACTCTCCTCTCTCTTGATAAA; listed as DNA, chemistry not given here; listed as Homo sapiens)”: the “ncRNA array expression, patient 2” value is −2.014; the “ncRNA array expression, patient 3” value is given as −1.535; the “ncRNA array expression, patient 4” value was −1.64; the “ncRNA array expression, patient 5” value is −1.4872. The “ncRNA array expression, patient 6” value is on record as −1.129; the “ncRNA array expression, patient 7” value was −1.282; the “ncRNA array expression, patient 8” value is recorded as −1.314; the “ncRNA array expression, patient 9” value was −1.818. The “ncRNA array expression, patient 10” value was −2.922; the “ncRNA array expression, patient 19” value is listed as −1.228; the “ncRNA array expression, patient 20” value is −1.698; the “ncRNA array expression, patient 21” value is −1.986. The “ncRNA array expression, patient 22” value is −1.277; the “ncRNA array expression, patient 23” value is recorded as −1.277; the “ncRNA array expression, patient 24” value was −1.273; the “ncRNA array expression, patient 25” value is recorded as −2.407. For the same substance, the “ncRNA array expression, patient 26” value is listed as −2.501; the “ncRNA array expression, patient 27” value is reported as −1.97; the “ncRNA array expression, patient 28” value is listed as −1.952; the “ncRNA array expression, patient 29” value is given as −1.912. Besides, the “ncRNA array expression, patient 30” value is reported as −0.5599.

Turning to “SEQ ID NO 73 (AAAGTTTCCCCATAATGCTCTTGCAAGTGAATATGAGCTGTGGTTTTTGCAGTGGAGTTA; listed as DNA, chemistry not given here; listed as Homo sapiens)”, the “ncRNA array expression, patient 2” value is on record as −0.1172; the “ncRNA array expression, patient 3” value worked out at 1.314; the “ncRNA array expression, patient 4” value is listed as 2.477; the “ncRNA array expression, patient 5” value is listed as −0.06181. Moreover, the “ncRNA array expression, patient 6” value was 1.506; the “ncRNA array expression, patient 7” value was −0.179; the “ncRNA array expression, patient 8” value is on record as 1.518; the “ncRNA array expression, patient 9” value was 1.007. Further, the “ncRNA array expression, patient 10” value is 1.767; the “ncRNA array expression, patient 19” value is reported as 3.505; the “ncRNA array expression, patient 20” value came to 0.6301; the “ncRNA array expression, patient 21” value is 2.332. Moreover, the “ncRNA array expression, patient 22” value stood at 0.9622; the “ncRNA array expression, patient 23” value worked out at 0.07892; the “ncRNA array expression, patient 24” value is on record as 0.3377; the “ncRNA array expression, patient 25” value is recorded as 1.57. The “ncRNA array expression, patient 26” value is 1.308; the “ncRNA array expression, patient 27” value is reported as 0.1447; the “ncRNA array expression, patient 28” value was 2.166; the “ncRNA array expression, patient 29” value was found to be 0.9153. Moreover, the “ncRNA array expression, patient 30” value is on record as −0.2612.

With “SEQ ID NO 42 (TAGACATAGGTTAGAGGGGGAACAGTGCTTAAAATTCCATGGAACTAAGATTTTTTTTAT; listed as DNA, chemistry not given here; listed as Homo sapiens)”, the “ncRNA array expression, patient 2” value was −1.5031; the “ncRNA array expression, patient 3” value was −1.941; the “ncRNA array expression, patient 4” value is given as −1.837; the “ncRNA array expression, patient 5” value was −1.916. The “ncRNA array expression, patient 6” value was −1.445; the “ncRNA array expression, patient 7” value is reported as −1.996; the “ncRNA array expression, patient 8” value is on record as −2.073; the “ncRNA array expression, patient 9” value was −1.562. The “ncRNA array expression, patient 10” value is recorded as −0.8067; the “ncRNA array expression, patient 19” value is −2.231; the “ncRNA array expression, patient 20” value is reported as −1.775; the “ncRNA array expression, patient 21” value was −1.59. The “ncRNA array expression, patient 22” value is recorded as −1.26; the “ncRNA array expression, patient 23” value is listed as −0.1085; the “ncRNA array expression, patient 24” value was −1.66; the “ncRNA array expression, patient 25” value was −1.5976. Moreover, the “ncRNA array expression, patient 26” value is −1.684; the “ncRNA array expression, patient 27” value is listed as −1.038; the “ncRNA array expression, patient 28” value is listed as −1.339; the “ncRNA array expression, patient 29” value is −0.5812. The “ncRNA array expression, patient 30” value is reported as 1.333.
